Experimental data published in ChEMBL document CHEMBL1129342, “Structure-based design of novel HIV protease inhibitors: sulfonamide-containing 4-hydroxycoumarins and 4-hydroxy-2-pyrones as potent non-peptidic inhibitors” (J Med Chem, 1996).

Tests used:
[1] = target: T1, Human immunodeficiency virus type 1 protease (Human immunodeficiency virus 1, UniProt Q72874); assay: Binding affinity against HIV-1 protease.
[2] = target: Human immunodeficiency virus type 1 protease (Human immunodeficiency virus 1) (UniProt Q72874)
[3] = target: T1, Human immunodeficiency virus type 1 protease; assay: Binding affinity towards HIV protease

Row | Ki [3] | SMILES | Ki [1] | IC90 [2]
1 |  | CCC(Cc1ccccc1)c1cc(O)c(C(c2cccc(NS(=O)(=O)c3cn(C)cn3)c2)C2CC2)c(=O)o1 (single isomer, unassigned; diastereomer 1) [listing 1 of 2 here] | 0.52 nM | 
2 |  | CCC(Cc1ccccc1)c1cc(O)c(C(c2cccc(NS(=O)(=O)c3cn(C)cn3)c2)C2CC2)c(=O)o1 (mixture of isomers) [listing 1 of 2 here] |  | 4100 nM
3 |  | CCC(Cc1ccccc1)c1cc(O)c(C(c2cccc(NS(=O)(=O)c3cn(C)cn3)c2)C2CC2)c(=O)o1 (single isomer, unassigned; diastereomer 2) [listing 1 of 2 here] | 0.73 nM | 
4 |  | CCC(Cc1ccccc1)c1cc(O)c(C(c2cccc(NS(=O)(=O)c3cn(C)cn3)c2)C2CC2)c(=O)o1 (single isomer, unassigned; diastereomer 2) [listing 2 of 2 here] |  | 5700 nM
5 |  | CCC(Cc1ccccc1)c1cc(O)c(C(c2cccc(NS(=O)(=O)c3cn(C)cn3)c2)C2CC2)c(=O)o1 (single isomer, unassigned; diastereomer 3) [listing 1 of 2 here] |  | 6800 nM
6 |  | COc1ccc2c(O)c(C(c3cccc(NS(=O)(=O)c4cn(C)cn4)c3)C3CC3)c(=O)oc2c1 (stereo not given) | 0.7 nM | 
7 |  | CCC(Cc1ccccc1)c1cc(O)c(C(c2cccc(NS(=O)(=O)c3cn(C)cn3)c2)C2CC2)c(=O)o1 (single isomer, unassigned; diastereomer 4) [listing 1 of 2 here] |  | 6000 nM
8 |  | CCC(Cc1ccccc1)c1cc(O)c(C(c2cccc(NS(=O)(=O)c3ccc(Cl)cc3)c2)C2CC2)c(=O)o1 (stereo not given) | 15 nM | 6200 nM
9 |  | COc1ccc2c(O)c(C(c3cccc(NS(=O)(=O)c4ccc(C#N)cc4)c3)C3CC3)c(=O)oc2c1 (stereo not given) | 5.8 nM | 
10 |  | CCC(Cc1ccccc1)c1cc(O)c(C(c2cccc(NS(=O)(=O)c3cn(C)cn3)c2)C2CC2)c(=O)o1 (single isomer, unassigned; diastereomer 3) [listing 2 of 2 here] | 1.9 nM | 
11 |  | COCCOCCC(CCOCCOC)c1cc(O)c(C(c2cccc(NS(=O)(=O)c3cn(C)cn3)c2)C2CC2)c(=O)o1 (stereo not given) | 4.2 nM | 
12 |  | CCC(CCOCCOC)c1cc(O)c(C(c2cccc(NS(=O)(=O)c3cn(C)cn3)c2)C2CC2)c(=O)o1 (stereo not given) | 0.88 nM | 
13 | 4 nM | CCC(Cc1ccccc1)c1cc(O)c(C(c2cccc(NC(=O)C(Cc3c[nH]cn3)NC(=O)OC(C)(C)C)c2)C2CC2)c(=O)o1 (stereo not given) |  | 
14 |  | Cn1cnc(S(=O)(=O)Nc2cccc(C(c3c(O)cc(C(CC4CC4)CC4CC4)oc3=O)C3CC3)c2)c1 (single isomer, unassigned; enantiomer 2) |  | 6900 nM
15 |  | CCC(Cc1ccccc1)c1cc(O)c(C(c2cccc(NS(=O)(=O)c3cn(C)cn3)c2)C2CC2)c(=O)o1 (single isomer, unassigned; diastereomer 1) [listing 2 of 2 here] |  | 4500 nM
16 |  | CCC(Cc1ccccc1)c1cc(O)c(C(c2cccc(NS(=O)(=O)c3ccc(OC)cc3)c2)C2CC2)c(=O)o1 (stereo not given) | 22 nM | 7600 nM
17 |  | O=c1cc(C(CC2CC2)CC2CC2)oc(O)c1C(c1cccc(NS(=O)(=O)c2ccc(F)cc2)c1)C1CC1 (stereo not given) | 16 nM | 8000 nM
18 |  | CCC(CC1CCOCC1)c1cc(O)c(C(c2cccc(NS(=O)(=O)c3cn(C)cn3)c2)C2CC2)c(=O)o1 (stereo not given) | 0.48 nM | 
19 |  | O=c1cc(C(CC2CC2)CC2CC2)oc(O)c1C(c1cccc(NS(=O)(=O)c2cccc3cccnc23)c1)C1CC1 (stereo not given) | 5.3 nM | 6500 nM
20 |  | N#Cc1ccc(S(=O)(=O)Nc2cccc(C(c3c(O)oc(C(CC4CC4)CC4CC4)cc3=O)C3CC3)c2)cc1 (stereo not given) | 5.4 nM | 8900 nM

Row | Ki [3] | SMILES | Ki [1] | IC90 [2]
21 |  | CCC(Cc1ccccc1)c1cc(O)c(C(c2cccc(NS(=O)(=O)c3cn(C)cn3)c2)C2CC2)c(=O)o1 (mixture of isomers) [listing 2 of 2 here] | 1.3 nM | 
22 |  | CCC(Cc1ccccc1)c1cc(O)c(C(c2cccc(NS(=O)(=O)c3ccccc3)c2)C2CC2)c(=O)o1 (stereo not given) | 17 nM | 7600 nM
23 |  | Cn1cnc(S(=O)(=O)Nc2cccc(C(c3c(O)cc(C(CC4CC4)CC4CC4)oc3=O)C3CC3)c2)c1 (single isomer, unassigned; enantiomer 1) |  | 10400 nM
24 | 44 nM | CCC(Cc1ccccc1)c1cc(O)c(C(c2cccc(NC(=O)Cc3cccnc3)c2)C2CC2)c(=O)o1 (stereo not given) |  | 
25 |  | CCC(Cc1ccccc1)c1cc(O)c(C(c2cccc(NS(=O)(=O)c3cccnc3)c2)C2CC2)c(=O)o1 (stereo not given) | 12 nM | 28700 nM
26 |  | CCC(Cc1ccccc1)c1cc(O)c(C(c2cccc(NS(=O)(=O)c3cccc4cccnc34)c2)C2CC2)c(=O)o1 (stereo not given) | 3.5 nM | 6000 nM
27 |  | CCC(Cc1ccccc1)c1cc(O)c(C(c2cccc(NS(=O)(=O)c3cn(C)cn3)c2)C2CC2)c(=O)o1 (single isomer, unassigned; diastereomer 4) [listing 2 of 2 here] | 1.4 nM | 
28 |  | CCC(CC)c1cc(O)c(C(c2cccc(NS(=O)(=O)c3cn(C)cn3)c2)C2CC2)c(=O)o1 (stereo not given) | 0.54 nM | 
29 |  | O=c1cc(C(CC2CC2)CC2CC2)oc(O)c1C(c1cccc(NS(=O)(=O)c2ccccc2)c1)C1CC1 (stereo not given) | 23 nM | 12100 nM
30 |  | Cn1cnc(S(=O)(=O)Nc2cccc(C(c3c(O)cc(CCc4ccccc4)oc3=O)C3CC3)c2)c1 (stereo not given) | 0.97 nM | 
31 |  | COc1ccc2c(O)c(C(c3cccc(NS(=O)(=O)c4ccc(F)cc4)c3)C3CC3)c(=O)oc2c1 (stereo not given) | 7.7 nM | 
32 |  | Cc1cc(O)c(C(c2cccc(NS(=O)(=O)c3cn(C)cn3)c2)C2CC2)c(=O)o1 (stereo not given) | 14 nM | 
33 | 110 nM | CCC(c1cccc(NC(=O)CCNC2C=Cc3ccccc32)c1)c1c(O)oc2ccccc2c1=O (stereo not given) |  | 
34 |  | CCCS(=O)(=O)Nc1cccc(C(c2c(O)cc(C(CC)Cc3ccccc3)oc2=O)C2CC2)c1 (stereo not given) | 40 nM | 11100 nM
35 |  | COc1ccc2c(O)c(C(c3cccc(NS(=O)(=O)c4cccc5cccnc45)c3)C3CC3)c(=O)oc2c1 (stereo not given) | 4.9 nM | 
36 |  | Cn1cnc(S(=O)(=O)Nc2cccc(C(c3c(O)cc(C(CC4CC4)CC4CC4)oc3=O)C3CC3)c2)c1 (racemic) |  | 4600 nM
37 | 1 nM | COc1c(C(O)c2ccccc2)c(=O)oc2ccccc12 (stereo not given) |  | 
38 |  | CCC(Cc1ccccc1)c1cc(O)c(C(c2cccc(NS(=O)(=O)c3ccc(C#N)cc3)c2)C2CC2)c(=O)o1 (stereo not given) | 5.7 nM | 9900 nM
39 |  | COCCOCCCc1cc(O)c(C(c2cccc(NS(=O)(=O)c3cn(C)cn3)c2)C2CC2)c(=O)o1 (stereo not given) | 1.6 nM | 
